A short description of series [1]: Aqueous solubility at pH 2. It is filed as physicochemical. The settings on record: aqueous medium at pH 2, pH 2, simulated gastric fluid. The source says:
(§1) The main structural difference is the pyridyl group connected to the sulfonamide in RTIOXA-47, as compared to the other 3 compounds. The replacement of a phenyl group with a pyridyl reduced the electron density of this aromatic ring.

A short description of series [2]: Metabolic stability in rat liver microsomes (RLM). The settings on record: for metabolic stability in rat liver microsomes, in words: RLM; for half-life: rat, rat liver microsomes, read-out: t1/2 (RLM). It is filed as in vitro ADME.
From the text: as §1

For series [3], the target named is T1, human OX2 receptor (Homo sapiens, UniProt O43614).
T1 construct: host or cells: CHO RD-HGA16 cells
T1 sequence (O43614 1-444): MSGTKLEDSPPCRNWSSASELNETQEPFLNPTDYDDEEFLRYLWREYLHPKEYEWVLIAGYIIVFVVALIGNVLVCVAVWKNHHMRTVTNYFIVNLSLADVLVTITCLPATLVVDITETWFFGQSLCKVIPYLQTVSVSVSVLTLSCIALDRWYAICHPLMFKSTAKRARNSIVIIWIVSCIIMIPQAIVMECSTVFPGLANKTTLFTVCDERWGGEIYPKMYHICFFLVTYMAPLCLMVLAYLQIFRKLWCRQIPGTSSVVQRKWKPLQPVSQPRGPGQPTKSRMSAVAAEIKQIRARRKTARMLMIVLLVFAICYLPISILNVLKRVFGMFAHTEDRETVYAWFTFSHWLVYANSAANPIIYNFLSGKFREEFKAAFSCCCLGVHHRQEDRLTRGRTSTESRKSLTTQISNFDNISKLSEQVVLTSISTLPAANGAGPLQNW
Kind of series: OX2R calcium mobilization assay. It is filed as cell-based. The settings on record: for Emax: Table 10; for agonist potency at OX2R, in words: calcium mobilization. The method, then: (§2) Activity of the target compounds at the human OX1 and OX2 receptors was determined utilizing CHO RD-HGA16 cells (Molecular Devices) engineered to stably express either the human OX1 or the human OX2 receptor. Cells were maintained in Ham's F12 supplemented with 10% fetal bovine serum, 100 units of penicillin and streptomycin, and 100 μg/mL normocin™. To conduct the assay, cells were plated at 25,000 cells/well and incubated overnight at 37° C., 5% CO2. The next day, cells were washed with assay buffer and loaded with Calcium 5 dye (Molecular Devices). After 45 minutes, cells were pretreated with a 9% DMSO solution for 15 minutes.
(§3) All of the synthesized compounds were characterized for their agonist potencies in the calcium mobilization assays using CHO cells overexpressing either the OX1R or OX2R. Reference is made to German, N. A.; Decker, A. M.; Gilmour, B. P.; Thomas, B. F.; Zhang, Y., Truncated Orexin Peptides: Structure-Activity Relationship Studies.
(In general: A change in cytosolic calcium serves as a functional read-out for many receptors and channels.)

Series [4] addresses T2, OX1R (Homo sapiens, UniProt O43613).
T2 sequence (O43613 1-425): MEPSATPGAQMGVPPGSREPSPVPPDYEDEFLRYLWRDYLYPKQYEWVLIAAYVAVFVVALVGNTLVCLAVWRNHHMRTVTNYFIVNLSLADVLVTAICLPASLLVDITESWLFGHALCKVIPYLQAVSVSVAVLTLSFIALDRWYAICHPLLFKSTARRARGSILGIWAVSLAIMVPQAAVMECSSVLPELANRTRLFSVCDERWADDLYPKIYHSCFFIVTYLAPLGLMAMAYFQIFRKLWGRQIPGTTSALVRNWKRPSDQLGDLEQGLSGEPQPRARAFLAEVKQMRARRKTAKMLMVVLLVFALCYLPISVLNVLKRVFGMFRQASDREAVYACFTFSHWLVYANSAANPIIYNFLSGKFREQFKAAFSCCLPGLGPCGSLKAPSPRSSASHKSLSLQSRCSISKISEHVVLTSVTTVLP
Nature of the series: OX1R calcium mobilization assay. It is filed as cell-based. The arrangement: host or cells: CHO RD-HGA16 cells. To be noted: for agonist potency at OX1R, in words: calcium mobilization; for OX1/OX2: ratio of OX1 to OX2 potency value. The method, then:
as §2, §3

For series [5], the target named is T2, OX1R. The settings on record: literature; cited from earlier work.
For series [6] the following is noted: literature (Turku et al. 2017); cited from earlier work.
Series [7] deals with both orexin receptors. The settings on record: literature (Turku et al. 2017); cited from earlier work.
[8] abbreviates: CHO RD-HGA16 cells expressing human OX2, calcium mobilization, read-out: EC50 (OX2).
Where [9] appears, read: CHO RD-HGA16 cells expressing human OX1, calcium mobilization, read-out: EC50 (OX1).

The structures appear in SMILES notation. Converted amounts (≈) assume the structure as drawn. Read-outs that look alike come from different tables or passages of the source.

A word on the solubility: it is how much of the substance goes into solution per volume. Low readings indicate a poorly soluble substance, high ones a readily soluble substance. As a reminder, the Emax is the maximal effect, on the per cent scale that the assay sets. By EC50 is commonly meant the midpoint of the concentration-response curve. Consider `COc1ccc(-c2cccc(C(=O)N(C)Cc3ccncc3)c2)cc1S(=O)(=O)Nc1cccc(NCCNC(=O)c2cccc(C)c2)c1` [Compound 38], for which the concentration in solution in series [1] (solubility) came to 313 µM (≈ 208 µg/mL). Also, in series [2], the “metabolic stability in rat liver microsomes, in words” value is given as “modest metabolic stability” and the half-life was 1.9 min. In series [3], the Emax worked out at 96%; the “agonist potency at OX2R, in words” value is “high and equal potency”. The Emax in series [4] (Table 10) turned out to be 105%. In addition, in series [4] (Table 10, read-out: OX1R EC50), the EC50 is 0.024 µM. Also, in series [4], the “agonist potency at OX1R, in words” value is “high and equal potency”; the OX1/OX2 came out at 1.0.

`COc1ccc(-c2cccc(C(=O)N3CCCC3)c2)cc1S(=O)(=O)Nc1cccc(NCCNC(=O)c2ccccc2N(C)C)c1` [Compound 3]: the EC50 in series [3] (setting [8]) was 0.252 µM.

In the case of `CCCCCC(=O)NCCNc1cncc(NS(=O)(=O)c2cc(-c3cccc(C(=O)N(C)Cc4ccncc4)c3)ccc2OC)c1` [Compound 67], the EC50 in series [3] was 0.0997 µM. In addition, in series [4], the EC50 came out at 0.0333 µM and the OX1/OX2 was determined as 0.33.

Regarding `COc1ccc(-c2cccc(C(=O)N(C)Cc3ccncc3)c2)cc1S(=O)(=O)Nc1cncc(NCCNC(=O)CC2CCCC2)c1` [Compound 69], in series [4], the OX1/OX2 was 0.57.

In the case of `CCCC(=O)NCCNc1cncc(NS(=O)(=O)c2cc(-c3cccc(C(=O)N(C)Cc4ccncc4)c3)ccc2OC)c1` [Compound 65], the OX1/OX2 in series [4] stood at 0.60.

As to `COc1ccc(-c2cccc(C(=O)NCCN(C)C)c2)cc1S(=O)(=O)Nc1cccc(NCCNC(=O)c2cccc(C)c2)c1` [Compound 32], in series [3], the “agonist potency at OX2R, in words” value was “sharp decrease of potency”. In series [4], the “agonist potency at OX1R, in words” value is listed as “complete loss of potency” and the OX1/OX2 is more than 10.0.

For the molecule `CCCN(CCC)c1cccc(-c2ccc(OC)c(S(=O)(=O)Nc3cccc(NCCNC(=O)c4ccccc4N(C)C)c3)c2)c1` [Compound 9], the concentration for a half-maximal effect (EC50) in series [3] (setting [8]) and in series [4] (setting [9]) was more than 10 µM in each case.

As for `CCCCC(=O)NCCNc1cncc(NS(=O)(=O)c2cc(-c3cccc(C(=O)N(C)Cc4ccncc4)c3)ccc2OC)c1` [Compound 66], the OX1/OX2 in series [4] worked out at 0.33.

In the case of `COc1ccc(-c2cccc(C(=O)N(C)Cc3ccncc3)c2)cc1S(=O)(=O)Nc1cncc(NCCNC(=O)C(C)C)c1` [Compound 64], the OX1/OX2 in series [4] worked out at 0.46.

For `CCN(CC)C(=O)c1cccc(-c2ccc(OC)c(S(=O)(=O)Nc3cccc(NCCNC(=O)c4ccccc4N(C)C)c3)c2)c1` [Compound 5], the EC50 in series [4] (setting [9]) was 0.737 µM. Also, the OX1/OX2 in series [4] was determined as 3.32.

Regarding `COc1ccc(-c2cccc(N(C)C)c2)cc1S(=O)(=O)Nc1cccc(NCCNC(=O)c2ccccc2N(C)C)c1` [Compound 7], the EC50 in series [3] (setting [8]) was 2.13 µM; in series [4] (setting [9]) it was more than 10 µM. In addition, the OX1/OX2 in series [4] is on record as more than 20.

With `COc1ccc(-c2cccc(C(=O)N(C)Cc3ccncc3)c2)cc1S(=O)(=O)Nc1cncc(OCCNC(=O)c2cccc(C)c2)c1` [Compound 55], the OX1/OX2 in series [4] came to 1.52.

Take `COc1ccc(-c2cccc(C(=O)N(C)Cc3ccncc3)c2)cc1-c1nnc(Nc2cccc(NCCNC(=O)c3cccc(C)c3)c2)s1` [Compound 43]: the “agonist potency at OX2R, in words” value in series [3] is “inactive”. Also, in series [4], the “agonist potency at OX1R, in words” value was “inactive”.

For the molecule `CCN(CC)c1cccc(-c2ccc(OC)c(S(=O)(=O)Nc3cccc(NCCNC(=O)c4ccccc4N(C)C)c3)c2)c1` [Compound 8], in series [4] (setting [9]), the EC50 is more than 10 µM. The OX1/OX2 in series [4] is more than 20.

Consider `COc1ccc(-c2cccc(C(=O)N(C)Cc3ccncc3)c2)cc1-c1nnc(Nc2cccc(OCCNC(=O)c3cccc(C)c3)c2)s1` [Compound 44], for which the “agonist potency at OX2R, in words” value in series [3] was “inactive”. Moreover, the “agonist potency at OX1R, in words” value in series [4] was “inactive”.

Consider `COc1ccc(-c2cccc(C(=O)N(C)C)c2)cc1S(=O)(=O)Nc1cccc(N2CCN(C(=O)c3ccccc3N(C)C)CC2)c1` [Compound 17], for which the concentration for a half-maximal effect (EC50) in series [3] (setting [8]) and in series [4] (setting [9]) was more than 10 µM each time.

`CCC(=O)NCCNc1cncc(NS(=O)(=O)c2cc(-c3cccc(C(=O)N(C)Cc4ccncc4)c3)ccc2OC)c1` [Compound 63]: the OX1/OX2 in series [4] stood at 0.48.

With `COc1ccc(-c2cccc(C(=O)N(C)c3ccccn3)c2)cc1S(=O)(=O)Nc1cccc(NCCNC(=O)c2cccc(C)c2)c1` [Compound 33], the OX1/OX2 in series [4] is on record as 4.69.

With `COc1ccc(-c2cccc(C(=O)N(C)CCc3ccccn3)c2)cc1S(=O)(=O)Nc1cccc(NCCNC(=O)c2cccc(C)c2)c1` [Compound 39], the OX1/OX2 in series [4] is reported as 2.78.

As to `COc1ccc(-c2cccc(C(=O)N(C)C)c2)cc1S(=O)(=O)Nc1cccc(N2CCN(C(=O)c3cccc(C)c3)CC2)c1` [Compound 18], the EC50 in series [3] (setting [8]) and in series [4] (setting [9]) was more than 10 µM in each case.

For `COc1ccc(-c2cccc(C(=O)N(C)Cc3ccncc3)c2)cc1S(=O)(=O)Nc1cncc(NCCNC(=O)C2CCCCC2)c1` [Compound 68], the OX1/OX2 in series [4] was determined as 0.44.

Turning to `COc1ccc(-c2cccc(C(C)(C)C)c2)cc1S(=O)(=O)Nc1cccc(NCCNC(=O)c2ccccc2N(C)C)c1` [Compound 10], the EC50 in series [3] (setting [8]) and in series [4] (setting [9]) was more than 10 µM in each case.

Take `COc1ccc(-c2cccc(C(=O)NCc3ccccn3)c2)cc1S(=O)(=O)Nc1cccc(NCCNC(=O)c2cccc(C)c2)c1` [Compound 36]: in series [4], the “agonist potency at OX1R, in words” value was “complete loss of the OX1R potency” and the OX1/OX2 is recorded as more than 20.0.

Turning to `COc1ccc(-c2cccc(C(=O)N(C)C)c2)cc1C(=O)Nc1cccc(NCCNC(=O)c2cccc(C)c2)c1` [Compound 41], the “agonist potency at OX1R, in words” value in series [4] was “inactive”.

As to `COC(=O)N1CCC[C@H](NS(C)(=O)=O)[C@@H]1CO[C@H]1CC[C@@H](c2ccccc2)CC1` [TAK-925], the “activity at OX1R, in words” value in series [5] is on record as “little to no activity”.

As to `COc1ccc(-c2cccc(C(C)C)c2)cc1S(=O)(=O)Nc1cccc(NCCNC(=O)c2ccccc2N(C)C)c1` [Compound 6], the EC50 in series [3] (setting [8]) and in series [4] (setting [9]) was more than 10 µM in each case.

Take `COc1ccc(-c2cccc(C(F)(F)F)c2)cc1S(=O)(=O)Nc1cccc(NCCNC(=O)c2ccccc2N(C)C)c1` [Compound 11]: the EC50 in series [3] (setting [8]) and in series [4] (setting [9]) was more than 10 µM in each case.

For `CCCNC(=O)c1cccc(-c2ccc(OC)c(S(=O)(=O)Nc3cccc(NCCNC(=O)c4ccccc4N(C)C)c3)c2)c1` [Compound 4], the EC50 in series [4] (setting [9]) is more than 10 µM. In series [4], the OX1/OX2 is more than 20.

On to `COc1ccc(-c2cccc(C(=O)N(C)Cc3ccncc3)c2)cc1S(=O)(=O)Nc1cncc(NCCNC(=O)CCC2CCCCC2)c1` [Compound 70], for which, in series [4], the OX1/OX2 worked out at 0.72.

As for `COc1ccc(-c2cccc(C(=O)N(C)Cc3ccncc3)n2)cc1S(=O)(=O)Nc1cccc(NCCNC(=O)c2cccc(C)c2)c1` [Compound 59], the solubility in series [1] was more than 400 µM. In addition, in series [2], the “metabolic stability in rat liver microsomes, in words” value was “modest metabolic stability” and the half-life was found to be 1.8 min. Besides, the Emax in series [3] came to 94%. Besides, the maximal effect (Emax) in series [4] (Table 10) was determined as 95%.

As for `Cc1ccc(Cn2c(=N)n(CC(O)c3ccc(Cl)c(Cl)c3)c3ccccc32)cc1` (centres unmarked) [Yan7874], the cytotoxicity result in series [6] is given as “orexin receptor independent cytotoxicity”. Moreover, in series [7], the EC50 is more than 3.2 µM.

Source of the values: US20240174605A1, “ARYLSULFONAMIDES AS OREXIN RECEPTOR AGONISTS” (RESEARCH TRIANGLE INSTITUTE, priority 2021, published 2024).
